# According to patent publication US20220249711A1, “METHODS FOR TREATING TUMORS” (CENTRE HOSPITALIER UNIVERSITAIRE DE GRENOBLE, priority 2019, published 2022):
# How the values were obtained:
# [1] = magnetic field of 3 Tesla; reference cited; cited from earlier work
# brain metastases = experiment: MRI signal enhancement in brain metastases, Nano-Rad phase I-b trial; type: in vivo, human; conditions: D0, 15 min after i.v. Dotarem 0.2 mL/kg (0.1 mmol/kg); metastases >1 cm; mean ±SD
# From the text: This study is part of a prospective dose escalation phase I-b clinical trial to evaluate the tolerance of the intravenous administration of radiosensitizing AGuIX nanoparticles in combination with whole brain radiotherapy for the treatment of brain metastases. The Nano-Rad trial (Radiosensitization of Multiple Brain Metastases Using AGuIX Gadolinium Based Nanoparticles) was registered as NCT02820454. Here, we report the findings of the MRI protocol applied to the 15 recruited patients. The objectives assigned to this MRI ancillary study were to i) assess the distribution of AGuIX nanoparticles in brain metastases and surrounding healthy tissues and ii) to measure the T1-weighted contrast enhancement and nanoparticle concentration in brain metastases and surrounding healthy tissues after intravenous administration of AGuIX nanoparticles (Verry C, et al. BMJ Open. 9:e023591 (2019)).
# Patients with multiple brain metastases ineligible for local treatment by surgery or stereotactic radiation were recruited. […]
smiles,measurement,setting,value
"CNC[C@H](O)[C@@H](O)[C@H](O)[C@H](O)CO.O=C([O-])CN1CCN(CC(=O)[O-])CCN(CC(=O)O)CCN(CC(=O)[O-])CC1.[Gd+3] [Dotarem, gadoterate meglumine]",r1 per Gd^3+ ion,[1],3.5 mM⁻¹ s⁻¹
same,MRI enhancement averaged over all measurable metastases,brain metastases,182.9±116.2%
